Assay results from patent US20100143379A1 (priority 2005, published 2010).
One block for each molecule: values may come before it.

Columns and labels:
Assay type in all cases: cell-based
[1] = tested on: murine bone marrow progenitor cultures; experiment: BFU-E and CFU-E erythropoietin-dependent progenitor colony assays; conditions: 10-100 ng/ml MIF, 1-20 ng/ml TNFα, or 10-100 U/ml IFNγ
Description: Bone marrow cells were harvested, plated in a methylcellulose-based medium, and colony numbers scored after the addition of murine cytokines. Individual assays were performed in duplicate, and the data shown is a compilation of 3-6 independently performed experiments. % inhibition of colony formation is calculated with reference to a cytokine-minus control. All values shown are the mean±SD and are significant when compared to wells with no cytokine addition (P<0.05). CFU-E: colony forming unit—erythroid; BFU-E: burst-forming unit—erythroid.
The two inflammatory cytokines, TNFα and IFNγ, were also studied. TNFα and IFNγ are produced as a consequence of macrophage and T cell activation (McDevitt et al. 2004. Curr Hematol Rep 3:97-106). The appearance of BFU-E and CFU-E were quantified after culture with these cytokines, applied either alone or in combination.
BFU-E and CFU-E Progenitor Cell Assays. The progenitor cell (colony) assays were performed according to the standardized methods described previously (Martiney et al. 2000. Infection and Immunity 68:2259-2267) and protocols from StemCell Technologies (Vancouver; BC, Canada). Briefly, washed murine bone marrow cells were plated in sterile 35-mm dishes containing a methylcellulose-based medium and growth factors. The total number of bone marrow cells plated in duplicate culture dishes were as follows: 2×10^5 for CFU-E and 5×10^5 for BFU-E. MethoCult™ M3334 was utilized for the CFU-E and BFU-E colony assays. The media for CFU-E and BFU-E was volume adjusted by adding 1 part Isocove's MDM to 9 parts MethoCult™ M3334 to give final concentrations of the following components: 15% fetal bovine serum, 1% BSA, […] transferrin, […] insulin, 1% methylcellulose, 10^−4 M 2-mercaptoethanol, 2 mM L-glutamine and 3 units/ml erythropoietin. Each assay of different bone marrow progenitor cells was performed independently 3-6 times.

HIV-1ADA = experiment: HIV-1 replication in monocyte-derived macrophage cultures (RT activity); conditions: polymyxin B 10 μg/ml added to MIF 50 ng/ml
Description: (§1) Triplicate cultures of monocyte-derived macrophages were infected with HIV-1ADA in the presence of anti-MIF MAb (25 μg/ml) or isotype control. Virus replication was monitored by RT activity in culture supernatants. Results are presented as mean±SD. […] Control cultures were cultivated with PMB mixed with an isotype immunoglobulin with or without MIF.
as §1, with “To investigate this possibility, HIV-infected macrophages were cultured in the presence of a neutralizing anti-MIF antibody or isotype control. Triplicate” for “Triplicate”, “supernatants.” for “supernatants. Results are presented as mean±SD.”

ERK-1/2 = ERK-1/2 phosphorylation in COS-7/M6 stable transformants (Western blot); conditions: 20 nM; COS-7/CD74+CD44 cell line or primary macrophages
CD74 = CD74 phospho-serine sandwich ELISA; conditions: H-89 20 μM; RO-31-2880 10 μM; COS-7/CD74+CD44
Description: (§2) FIGS. 12A-12E show the phosphoserine content of CD74 and CD44 measured by ELISA. […] The ELISA values represent the mean±SD of triplicate measurements. Experiments were replicated twice. *P<0.02 versus corresponding control (Student's T test, two-tailed). […] Cell lysates were prepared and probed for PKA and PKC using phospho-specific, and total anti-PKA and anti-PKC antibodies.
The observation that the phosphoserine content of CD74 increased only in cells that expressed CD74 and full-length CD44 is consistent with the notion that the MIF-mediated phosphorylation of CD74 is dependent on the activity of the CD44 intracytoplasmic domain.
(§3) The serine phosphorylation of CD74 and CD44 was quantified by specific sandwich ELISA (Perez et al. (2003). Nature Immunol 4:1083-92). […] After several washes (0.5% Tween-20 in PBS), 0.2 μg/ml anti-phospho-serine antibody (Hypromatrix) conjugated with horseradish peroxidase was added, and immunoreactivity measured by the TMB reagent (DakoCytomation) and the data analyzed with SpectraMax Plus (Molecular Devices).
Cell lysates were collected and analyzed by immunoblots using a pair of anti-phospho-PICA and anti-(total)-PKA antibodies, a pair of anti-phospho-PKC (all from Cell Signaling) and anti-(total)-PKC (Santa Cruz) antibodies, or a pair of anti-phospho-p56^lck (Cell Signaling) and anti-(total) p56^lck (sc-433, Santa Cruz) antibodies.

CD44 = CD44 phospho-serine sandwich ELISA; conditions: H-89, 20 μM; RO-31-2880, 10 μM
Description: as §2
Ser325 is constitutively phosphorylated in resting cells, but undergoes de-phosphorylation in response to PKC activating stimuli such as phorbol esters. […] The effect of MIF-stimulation CD44 phosphorylation was analyzed in the COS-7 and MEF cell lines by sandwich ELISA using an anti-CD44 capture antibody to quantify CD44 phospho-serine residues (Perez et al. (2003). Nature Immunol. 4:1083-92). […]
as §3, with “Devices). […]” for “Devices).”

Molecule: TNFα
BFU-E and CFU-E colony formation [1]: dose-dependently inhibited

Molecule: polymyxin B [reference compound]
inhibitory effect of MIF on viral replication (HIV-1ADA): did not significantly reduce the inhibitory effect of MIF

Molecule: COc1c(C=O)c(O)cc2c1C(=O)c1ccccc1C2=O [damnacanthal, reference compound]
phosphorylation of ERK1/2 (ERK-1/2): inhibition of the phosphorylation of p56^lck and ERK1/2

MIF stimulation of CD74 phosphorylation in presence of kinase inhibitor (CD74): decreased markedly | serine phosphorylation of CD44 after MIF stimulation in presence of kinase inhibitor (CD44): reduced by PKA inhibition
Molecule: O=S(=O)(NCCNC/C=C/c1ccc(Br)cc1)c1cccc2cnccc12 [H-89, reference compound]

B1: IFNγ: Recombinant mouse IFN-γ from R&D Systems (protein, UniProt P01580 23-155, looked up)
Interferon gamma: HGTVIESLESLNNYFNSSGIDVEEKSLFLDIWRNWQKDGDMKILQSQIISFYLRLFEVLKDNQAISNNISVIESHLITTFFSNSKAKKDAFMSIAKFEVNNPQVQRQAFNELIRVVHQLLPESSLRKRKRSRC
BFU-E and CFU-E colony formation [1]: dose-dependently inhibited
